Experiments:
[1] = system: HeLa; assay: cells; assay type: cell-based; settings: Homo sapiens, HeLa, read-out: IC50 against cell proliferation, HeLa
[2] = system: A549; assay: cells; assay type: cell-based; settings: Homo sapiens, A549, read-out: IC50 against cell proliferation, A549
[3] = system: MCF-7; assay: cells; assay type: cell-based; settings: Homo sapiens, MCF7, read-out: IC50 against cell proliferation, MCF-7
[4] = target: PI3Kα (Homo sapiens, UniProt P42336); assay: In vitro PI3K enzyme inhibitory assay (ADP-Glo), PI3Kα; assay type: biochemical; settings: read-out: PI3Kα % inhibition at 10 μM
[5] = target: PI3Kβ (Homo sapiens, UniProt P42338); assay: In vitro PI3K enzyme inhibitory assay (ADP-Glo), PI3Kβ; assay type: biochemical; settings: read-out: PI3Kβ % inhibition at 10 μM
[6] = target: PI3Kγ (Homo sapiens, UniProt P48736); assay: In vitro PI3K enzyme inhibitory assay (ADP-Glo), PI3Kγ; assay type: biochemical; settings: read-out: PI3Kγ % inhibition at 10 μM
[7] = system: AKT; assay: In vitro AKT enzyme inhibitory assay; assay type: biochemical
[8] = system: RAW264.7 macrophage cells; assay: CCK-8 cell viability, RAW264.7 macrophages; assay type: cell-based, Mouse; settings: 24 h
Method: To obtain more accurate anti-inflammatory results and minimize the impact of cell death caused by the test compounds on the outcomes, we first evaluated the effects of the compounds on RAW264.7 macrophage viability. The cells were divided into two groups: one treated with […] LPS and the other untreated. Macrophages were exposed to compounds at concentrations of 10, 50, and 100 μM for 24 h, followed by cell viability measurement using the CCK-8 assay ([Huang et al., 2022]; [Flannigan and Wallace, 2015]; [Citi et al., 2020]; [Gemici and Wallace, 2015]). […] In the presence of LPS stimulation, a slight reduction of 11% cell activity was observed.
The CCK-8 assay is a commonly used method for assessing cell viability, based on cellular metabolic activity. […]
The CCK-8 assay is a commonly used method for assessing cell viability, based on cellular metabolic activity. […] The culture plate is then incubated in a suitable incubator for a defined period (usually 4 hours), followed by measuring the absorbance of each group's culture medium using a spectrophotometer, typically at a wavelength of 450 nanometers. Cell relative activity or viability is calculated based on absorbance values, often by subtracting the background absorbance from the control group's values and normalizing to the control group's values to obtain relative activity or viability.

[9] = system: nitrite production in RAW264.7 cells; assay: Griess assay, LPS-induced nitrite production in RAW264.7; assay type: cell-based; settings: Mus musculus, 24 h, 1 mg/mL LPS
Source text: Nitric oxide (NO) affects inflammation signaling pathways, regulating the intensity and timing of inflammatory responses, making it a crucial regulatory molecule in inflammation. LPS induces the production of nitric oxide (NO) by activating a series of signal transduction pathways. Upon NF-κB activation, transcription of the iNOS gene is promoted, leading to the synthesis of inducible nitric oxide synthase (iNOS). iNOS is an enzyme that produces large amounts of NO, activated under inflammatory conditions to release substantial nitric oxide ([Kumar, 2023]). In vivo, NO is easily oxidized by superoxide ions to generate nitrites. Studies have shown that H2S not only acts to scavenge peroxides but also undergoes chemical reactions with NO, forming novel nitrosylthiol compounds. We assess the anti-inflammatory activity of compounds by measuring nitrite production ([Somensi et al., 2019]).
The Griess assay is used to measure nitrite levels in biological samples, both in vivo and in vitro. See Supplementary Material for more details ([Kumar, 2023]).
The Griess assay is used to measure nitrite levels in biological samples, both in vivo and in vitro. […] The absorbance is measured at a wavelength of 540-550 nanometers, and the concentration of the red product is directly proportional to the absorbance. Nitrite concentrations can be calculated using a standard curve.

[10] = system: TNF-α levels in RAW264.7 cells; assay: ELISA, LPS-mediated TNF-α in RAW264.7; assay type: cell-based, Mouse; settings: LPS-induced RAW264.7, 24 h, vs control group
[11] = system: IL-10 level in RAW264.7 cells; assay: ELISA, IL-10 in RAW264.7; assay type: cell-based, Mouse; settings: RAW264.7, 24 h
[12] = system: HO-1 levels in RAW264.7 cells; assay: ELISA, HO-1 in RAW264.7; assay type: cell-based, Mouse; settings: RAW264.7, 24 h
[13] = H2S release, methylene blue (MB+) method; assay type: physicochemical; settings: MB+ method with TECP or cysteine; different temperature and pH
[14] = system: HepG2 cell lines (liver tumor cell)
[15] = system: LO2 cell lines (normal liver cell)
[16] = system: WI38 normal cells
[17] = system: HepG2 cell lines (liver tumor cell); assay: cells; settings: Homo sapiens, HepG2, 24 h, read-out: IC50 HepG2
[18] = system: LO2 cell lines (normal liver cell); assay: cells; settings: Homo sapiens, L02, 24 h, read-out: IC50 LO2
[19] = system: WI38 normal cells; assay: cells; settings: Homo sapiens, WI-38, read-out: IC50 WI38

Chain of PI3Kα (P42336 whole entry): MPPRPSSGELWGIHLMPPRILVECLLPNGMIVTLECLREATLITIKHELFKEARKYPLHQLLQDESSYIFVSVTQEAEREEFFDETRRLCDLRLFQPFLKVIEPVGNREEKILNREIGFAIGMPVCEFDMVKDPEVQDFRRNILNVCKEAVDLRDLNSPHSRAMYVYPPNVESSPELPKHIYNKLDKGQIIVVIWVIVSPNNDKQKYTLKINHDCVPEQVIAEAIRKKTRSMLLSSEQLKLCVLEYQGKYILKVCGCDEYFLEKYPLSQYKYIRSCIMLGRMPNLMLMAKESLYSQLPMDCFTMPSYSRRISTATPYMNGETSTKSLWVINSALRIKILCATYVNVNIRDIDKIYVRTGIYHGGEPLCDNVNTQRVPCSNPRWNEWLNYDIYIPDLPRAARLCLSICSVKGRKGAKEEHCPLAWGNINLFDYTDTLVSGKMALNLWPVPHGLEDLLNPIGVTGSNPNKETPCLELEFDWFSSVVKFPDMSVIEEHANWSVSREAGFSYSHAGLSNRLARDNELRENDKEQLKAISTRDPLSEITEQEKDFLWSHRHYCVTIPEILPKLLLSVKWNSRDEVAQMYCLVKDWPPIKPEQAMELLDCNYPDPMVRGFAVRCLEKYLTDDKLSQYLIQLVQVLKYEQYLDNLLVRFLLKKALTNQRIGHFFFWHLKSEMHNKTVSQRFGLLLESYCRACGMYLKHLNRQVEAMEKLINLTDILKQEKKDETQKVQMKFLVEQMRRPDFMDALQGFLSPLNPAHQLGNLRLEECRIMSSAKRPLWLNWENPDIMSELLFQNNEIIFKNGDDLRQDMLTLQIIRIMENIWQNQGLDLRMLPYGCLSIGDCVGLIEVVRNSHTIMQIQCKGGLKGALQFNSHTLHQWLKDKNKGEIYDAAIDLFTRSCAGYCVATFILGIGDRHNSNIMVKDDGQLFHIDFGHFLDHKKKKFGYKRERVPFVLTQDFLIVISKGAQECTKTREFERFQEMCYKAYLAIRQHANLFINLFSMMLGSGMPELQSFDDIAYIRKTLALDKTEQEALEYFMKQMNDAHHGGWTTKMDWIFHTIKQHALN
Chain of PI3Kα (P27986 whole entry partner): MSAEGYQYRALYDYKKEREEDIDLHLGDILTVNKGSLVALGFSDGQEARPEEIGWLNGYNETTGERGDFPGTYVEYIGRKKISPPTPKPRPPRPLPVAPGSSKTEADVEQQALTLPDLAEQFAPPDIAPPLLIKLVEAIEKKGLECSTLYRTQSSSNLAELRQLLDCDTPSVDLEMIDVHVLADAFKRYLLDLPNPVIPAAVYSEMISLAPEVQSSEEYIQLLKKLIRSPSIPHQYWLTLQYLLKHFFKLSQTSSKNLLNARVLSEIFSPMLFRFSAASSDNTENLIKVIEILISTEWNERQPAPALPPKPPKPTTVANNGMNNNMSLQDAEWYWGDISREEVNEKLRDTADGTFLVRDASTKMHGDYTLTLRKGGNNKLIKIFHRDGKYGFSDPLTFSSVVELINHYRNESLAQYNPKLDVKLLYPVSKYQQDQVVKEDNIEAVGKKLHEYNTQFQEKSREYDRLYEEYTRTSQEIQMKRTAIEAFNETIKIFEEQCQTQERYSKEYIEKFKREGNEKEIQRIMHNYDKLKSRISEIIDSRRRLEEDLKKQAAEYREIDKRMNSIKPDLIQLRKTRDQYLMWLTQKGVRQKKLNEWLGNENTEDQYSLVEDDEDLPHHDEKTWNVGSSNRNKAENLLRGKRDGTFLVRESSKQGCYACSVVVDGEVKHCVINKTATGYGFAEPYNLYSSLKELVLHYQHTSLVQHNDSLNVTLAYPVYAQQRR
Chain of PI3Kγ (P48736 whole entry): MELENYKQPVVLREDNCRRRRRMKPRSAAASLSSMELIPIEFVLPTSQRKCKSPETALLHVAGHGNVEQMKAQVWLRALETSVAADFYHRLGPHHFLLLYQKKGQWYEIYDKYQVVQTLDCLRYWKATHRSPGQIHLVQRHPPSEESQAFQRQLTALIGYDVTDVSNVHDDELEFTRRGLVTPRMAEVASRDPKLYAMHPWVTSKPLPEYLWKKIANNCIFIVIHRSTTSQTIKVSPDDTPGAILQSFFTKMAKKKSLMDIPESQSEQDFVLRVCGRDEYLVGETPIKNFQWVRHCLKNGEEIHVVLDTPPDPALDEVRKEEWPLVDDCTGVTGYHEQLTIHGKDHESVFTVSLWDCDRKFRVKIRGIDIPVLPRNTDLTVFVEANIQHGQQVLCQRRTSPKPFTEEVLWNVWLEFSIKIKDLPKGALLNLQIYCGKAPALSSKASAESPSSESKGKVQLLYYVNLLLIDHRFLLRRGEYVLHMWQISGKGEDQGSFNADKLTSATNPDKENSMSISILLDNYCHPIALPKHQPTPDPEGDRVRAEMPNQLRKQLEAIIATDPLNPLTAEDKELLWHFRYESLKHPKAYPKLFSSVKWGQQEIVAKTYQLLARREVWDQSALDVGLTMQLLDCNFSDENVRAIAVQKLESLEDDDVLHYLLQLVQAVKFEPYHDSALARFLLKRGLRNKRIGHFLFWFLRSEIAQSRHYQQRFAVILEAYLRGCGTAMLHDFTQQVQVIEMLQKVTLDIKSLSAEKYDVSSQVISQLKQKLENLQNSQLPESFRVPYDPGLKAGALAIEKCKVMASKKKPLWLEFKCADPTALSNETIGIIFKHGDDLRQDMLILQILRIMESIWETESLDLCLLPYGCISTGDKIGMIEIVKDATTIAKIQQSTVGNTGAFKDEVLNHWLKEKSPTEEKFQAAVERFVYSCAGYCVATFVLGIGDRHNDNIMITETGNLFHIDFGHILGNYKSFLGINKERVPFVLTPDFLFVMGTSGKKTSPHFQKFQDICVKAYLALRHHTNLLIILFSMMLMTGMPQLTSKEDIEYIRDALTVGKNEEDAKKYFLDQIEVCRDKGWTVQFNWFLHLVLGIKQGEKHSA
Chain of PI3Kβ (P42338 whole entry): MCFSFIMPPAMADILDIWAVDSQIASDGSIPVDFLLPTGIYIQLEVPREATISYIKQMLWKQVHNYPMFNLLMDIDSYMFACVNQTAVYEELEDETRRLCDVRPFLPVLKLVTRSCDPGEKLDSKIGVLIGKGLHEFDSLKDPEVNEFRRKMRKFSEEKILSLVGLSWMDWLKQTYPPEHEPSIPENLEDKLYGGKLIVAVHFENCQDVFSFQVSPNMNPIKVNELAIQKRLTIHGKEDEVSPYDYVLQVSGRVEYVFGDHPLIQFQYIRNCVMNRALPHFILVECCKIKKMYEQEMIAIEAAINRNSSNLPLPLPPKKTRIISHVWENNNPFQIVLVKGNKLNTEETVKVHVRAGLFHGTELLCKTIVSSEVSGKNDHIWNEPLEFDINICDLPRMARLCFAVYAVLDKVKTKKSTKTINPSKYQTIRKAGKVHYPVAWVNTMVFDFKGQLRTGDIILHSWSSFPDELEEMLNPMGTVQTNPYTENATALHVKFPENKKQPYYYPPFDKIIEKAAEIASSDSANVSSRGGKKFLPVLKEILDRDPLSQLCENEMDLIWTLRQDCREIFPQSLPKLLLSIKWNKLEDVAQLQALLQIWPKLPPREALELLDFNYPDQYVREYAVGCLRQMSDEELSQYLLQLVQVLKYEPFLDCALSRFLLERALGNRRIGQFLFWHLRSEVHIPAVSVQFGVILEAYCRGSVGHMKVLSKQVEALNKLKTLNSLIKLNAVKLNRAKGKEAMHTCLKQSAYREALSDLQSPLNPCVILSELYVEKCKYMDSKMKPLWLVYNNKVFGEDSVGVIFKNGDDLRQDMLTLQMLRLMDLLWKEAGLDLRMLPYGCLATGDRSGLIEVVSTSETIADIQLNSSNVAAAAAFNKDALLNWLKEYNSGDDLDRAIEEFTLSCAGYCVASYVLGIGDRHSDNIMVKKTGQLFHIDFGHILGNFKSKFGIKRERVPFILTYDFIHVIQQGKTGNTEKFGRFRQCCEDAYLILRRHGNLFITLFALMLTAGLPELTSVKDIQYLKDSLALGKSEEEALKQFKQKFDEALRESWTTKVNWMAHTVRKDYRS
Chain of PI3Kβ (P27986 whole entry partner): as the sequence (P27986 whole entry partner) above

**Q.** Which IC50 [1] does the source give for O=[N+]([O-])c1ccc2c(c1)NP(=S)(c1ccccc1)O2 (centres unmarked) [Compound S11, 5-nitro-2-phenyl-3H-benzo [d][1,3,2] oxazaphosphole 2-sulfide] here?
**A.** The IC50 was 260 ± 7.6 µM.

**Q.** What about the IC50 [2] of the same compound?
**A.** The IC50 was 294 ± 16.6 µM.

**Q.** And the IC50 [3]?
**A.** Its IC50 is 23 ± 3.2 µM.

**Q.** What about the inhibition at 10 µM [4] of the same compound?
**A.** Its inhibition at 10 µM is 67%.

**Q.** And the inhibition at 10 µM [5]?
**A.** The inhibition at 10 µM was 75%.

**Q.** What about the inhibition at 10 µM [6] of the same compound?
**A.** Its inhibition at 10 µM is 45%.

**Q.** What about the “AKT % inhibition at 10 μM” value [7] of the same compound?
**A.** Its value is 61%.

**Q.** What about the “Effect on RAW264.7 cell growth” value ([8]; absence of LPS, 10, 50, 100 μM) of the same compound?
**A.** The value was “no significant effect on cell growth”.

**Q.** And the “Reduction of RAW264.7 cell activity” value ([8]; presence of LPS stimulation, 10, 50, 100 μM)?
**A.** The value was 11%.

**Q.** What about the inhibition at 100 µM [9] of the same compound?
**A.** The inhibition at 100 µM was roughly 75%.

**Q.** What about the “Decrease of TNF-α induction level” value [10] of the same compound?
**A.** The value was 80%.

**Q.** And the “Induction level of IL-10 relative to control group” value [11]?
**A.** The value was “three times that of the control group”.

**Q.** And the “HO-1 expression relative to control group” value [12]?
**A.** The value was “approximately twice the level of the control group”.

**Q.** What about the “H2S release amount (in words)” value [13] of the same compound?
**A.** Its value is “the highest amount of hydrogen sulfide was released”.

**Q.** And the “Toxicity in words, HepG2” value [14]?
**A.** Its value is “low cytotoxicity”.

**Q.** And the “Toxicity in words, LO2” value [15]?
**A.** The value was “low cytotoxicity”.

**Q.** What about the “Toxicity in words, WI38” value [16] of the same compound?
**A.** The value was “low cytotoxicity”.

**Q.** And the IC50 [17]?
**A.** The IC50 was greater than 400 µM.

**Q.** And the IC50 [18]?
**A.** Its IC50 is greater than 200 µM.

**Q.** And the IC50 [19]?
**A.** Its IC50 is greater than 200 µM.

— paper PMC11790660 (Frontiers in Chemistry, 2025)
